Laboratory results: paper PMC2290058 (The Journal of Cell Biology, 1992)

What was measured:
[1] = tested on: A375SM human melanoma cells; assay: Cytotoxicity check of treatments; assay type: cell-based; settings: trypan blue exclusion; 3H-TdR or [35S]methionine incorporation; not shown
beta1 integrin subunit = assay: Flow cytometry, cell surface expression of beta1 integrin after treatment; assay type: cell-based, human; settings: 1 mM xyloside 24 h (Fig. 2) or chondroitinase ABC (not shown); mAb P4C10
alpha4 integrin subunit = assay: Flow cytometry, cell surface expression of alpha4 integrin after treatment; assay type: cell-based, human; settings: 1 mM xyloside 24 h (Fig. 2) or chondroitinase ABC (not shown); mAb P4C2
[2] = tested on: A375SM human melanoma cells; assay: Promotion of melanoma cell adhesion to coated substrata; assay type: cell-based; settings: for amount of coated ligand that promoted half maximal cell adhesion: peptide/OVA conjugate on Immulon 1 polystyrene wells, 30-min assay
[3] = tested on: A375SM human melanoma cells; assay type: cell-based; settings: for effect of ctDX (alphaDX) on cell adhesion to peptide: 1 mM inactive analogue, FN-C/H-III Fig. 5A, others not shown
[4] = tested on: A375SM human melanoma cells; assay type: cell-based
anti-FN-C/H-III IgG = assay: ELISA of purified anti-FN-C/H-III IgG; assay type: binding, rabbit; settings: coated substrata; not shown
[5] = molecular target: tryptic/catheptic 33-kD carboxyl-terminal heparin binding fragment of human plasma fibronectin A-chains (human); assay: ligand affinity column chromatography, competition
[6] = tested on: purified melanoma cell CSPG; assay: Binding of purified melanoma CSPG or CS to peptide/OVA affinity columns; design: species or system human
[7] = earlier work, ref McCarthy et al., 1988a, 1990, Haugen et al.; cited from earlier work
[8] = molecular target: CSPG binding to 33-kD fragment; design: species or system human; settings: inhibitor 500 ug/ml, 2 h, 4°C; CSPG about 7,000 dpm; buffer control <50
[9] = wells coated with 100 nmole FN-C/H-III/OVA (Fig. 5A)

With chondroitinase ABC the “cytotoxic effect as cause of the inhibition of cell adhesion” value [1] was “not due to cytotoxic”, the “cell surface beta1 integrin level compared to untreated controls” value (beta1 integrin subunit) was “identical” and the “cell surface alpha4 integrin level compared to untreated controls” value (alpha4 integrin subunit) was “identical”.
With O=[N+]([O-])c1ccc(O[C@@H]2OC[C@@H](O)[C@H](O)[C@H]2O)cc1 [/3DX, p-nitrophenyl-/3-o-xylopyranoside] the “cytotoxic effect as cause of the inhibition of cell adhesion” value [1] was “not due to cytotoxic”, the “cell surface beta1 integrin level compared to untreated controls” value (beta1 integrin subunit) was “identical” and the “cell surface alpha4 integrin level compared to untreated controls” value (alpha4 integrin subunit) was “identical”.
For YRVRVTPKEKTGPMKE [FN-C/H-III], the “promotion of melanoma cell adhesion” value ([2]; FN-C/H-III/OVA coated wells, 30-min assay (Fig. 4A)) was “promoted melanoma cell adhesion”, the “amount of coated ligand that promoted half maximal cell adhesion” value [2] was 100 nmol and the “effect of /3DX on cell adhesion to FN-C/H-III” value ([3]; 1 mM /3DX, wells coated with 100 nmole FN-C/H-III/OVA (Fig. 5A)) was “inhibited”. The “effect of ctDX (alphaDX) on cell adhesion to peptide” value [3] was “not by heparitinase or t~DX”, the “effect of chondroitinase ABC on cell adhesion to FN-C/H-III” value [3, 9] was “inhibited” and the “effect of heparitinase on cell adhesion to FN-C/H-III” value [3, 9] was “not by heparitinase”. For the same compound, the “effect of anti-alpha4 integrin mAb P4C2 on cell adhesion to peptide” value ([4]; P4C2, FN-C/H-III coated substrata) was “did not inhibit cell adhesion” and the “recognition by anti-FN-C/H-III IgG in ELISA” value (anti-FN-C/H-III IgG) was “specifically recognized”.
For “cell surface chondroitin sulfate proteoglycan (CSPG) purified from A375SM human melanoma cells”, the radioactivity bound to the 33-kD fragment column, buffer alone [5] was 6980 dpm.
With O=[N+]([O-])c1ccc(O[C@H]2OC[C@@H](O)[C@H](O)[C@H]2O)cc1 [ctDX, p-Nitrophenyl-ct-o-xylopyranoside] the “cytotoxic effect as cause of the inhibition of cell adhesion” value [1] was “not due to cytotoxic”.
For KNNQKSEPLIGRKKT [FN-C/H-II], the “CSPG binding affinity compared with FN-C/H-III” value ([6]; affinity column, Discussion) was “lower affinity than that observed for FN-C/H-III”, the “binding of purified CSPG to peptide affinity column” value ([6]; peptide/OVA column, applied in 0.05 M NaCl (Fig. 7)) was “bound purified CSPG” and the “amount of coated ligand that promoted half maximal cell adhesion” value [2] was 20 nmol. The “effect of ctDX (alphaDX) on cell adhesion to peptide” value [3] was “resistant”, the “inhibition of cell adhesion by chondroitinase ABC or /3DX” value ([3]; approximate, stated in text for chondroitinase ABC or /3DX) was ~ 50% and the heparin binding [7] was “bind heparin”. The “effect of anti-alpha5 integrin mAb P1D6 on cell adhesion to peptide” value ([4]; P1D6 (Fig. 8), mean of triplicate) was “did not inhibit”, the “inhibition of cell adhesion to peptide by anti-alpha4 integrin mAb P4C2” value ([4]; P4C2, not shown) was 50-60% and the “recognition by anti-FN-C/H-III IgG in ELISA” value (anti-FN-C/H-III IgG) was “did not recognize”.
With “OVA/OVA: ovalbumin coupled to ovalbumin, control conjugate” the “CSPG in flow through of 33-kD fragment affinity column” value [8] was 123 dpm.
